Experimental data taken from patent publication US20260374773A1, “MULTI-CYCLIC IRAK AND FLT3 INHIBITING COMPOUNDS AND USES THEREOF” (CHILDREN'S HOSPITAL MEDICAL CENTER, priority 2022, published 2026).

System: THP1 cells
Test: Combination drug screening with venetoclax, Cell Titer Glo, THP1
Assay type: cell-based
Conditions: compound 0-0.1 μM, venetoclax 0-20 μM, 10 × 10, 48 h, negative = synergy
Description: Combination drug therapy has the potential to produce enhanced effects with lower side effects not obtained using either agent alone, or beyond the additive effect of the different concentrations of the two different agents. To determine whether enhanced effects are observed in different drug combinations, combination drug screening was performed as previously described (Mathews-Griner, L. A. et al., Proc. Nat. Acad. Sci., 2014, 111:2349-2354; Lin, G. L. et al., Sci. Trans. Med., 2019, 11: eaaw0064). Briefly, 10 nL of compounds were acoustically dispensed into 1536-well white polystyrene tissue culture-treated plates with an Echo 550 acoustic liquid handler (Labcyte). Cells were then added to compound-containing plates at a density of 500-cells/well in 5 μL of medium. A 10-point custom concentration range was used for all listed drugs in a 10×10 matrix. Plates were incubated for 48 hours at standard incubator conditions covered by a stainless steel gasketed lid to prevent evaporation. 48 hours post compound addition, 3 μL of Cell Titer Glo (Promega) were added to each well and plates were incubated at room temperature for 15 minutes with the stainless-steel lid in place. Luminescence readings were taken using a Viewlux imager (PerkinElmer) with a 2 second exposure time per plate.
Each compound was studied in combination with venetoclax at two concentration ranges of compound and venetoclax, respectively (for a total of 4 combination dose-response curves). The dose combinations that yielded the optimal synergy score, measured as excess HSA, which are reported in Tables 23 and 24 for the FLT3 mutant cell line MOLM14 (D835Y) and the FLT3 WT cell line THP1, respectively.
Table 24 provides combination outcomes for representative compounds with venetoclax in the Cell Titer Glo assay in THP1 (FLT3 wild type) cells at 48 hours. The table provides relative excess HSA values for compounds of the disclosure used in combination with venetoclax compared to gilteritinib hemifumarate used in combination with venetoclax. A negative excess HSA score illustrates that the drug combination is better than either drug alone, wherein greater synergy is observed at larger negative values of the excess HSA score.
Excess HSA is a measure of synergy vs. additivity or antagonism, wherein a negative excess HSA value is indicative of synergy. More information on excess HSA scores can be found in Vlot, Anna H. C. et al., Drug Discovery Today, 2019, 24(12):2286-2298. […] However, different methodologies may yield different numerical scores, and different definitions of what constitutes a deviation from mere additivity vs true drug synergy. The large negative excess HSA values provided in Tables 23 and 24 illustrate that multiple members of this structural class synergize with venetoclax. The degree to which combination therapy has to potential to produce enhanced effects with lower side effects not obtained using either agent alone, or beyond the additive effect of the different concentrations of the two different agents depends on the nature of the drugs used in the combination, and the specific doses/concentrations at which they are ultimately used in the therapeutic regimen. A negative excess HSA score illustrates that the drug combination is better than either drug alone (at the concentrations being studied). […] However, the utility in certain drug combinations vs. others should not be distinguished based on cutoffs between excess HSA scores, because the score itself is only a relative indicator that is completely dependent on experimental design and is not an absolute number. Furthermore, the concept of what constitutes clinically meaningful drug synergy is something that is still being debated, not only between pharmacologists and physicians, but amongst pharmacologists themselves. […]

Structure (SMILES)	Excess HSA
COc1cn2ncc(-c3nc(N[C@@H]4CCCNC4)ncc3F)c2nc1C1CC1 [Compound 14a, (R)-4-(5-cyclopropyl-6-methoxypyrazolo[1,5-a]pyrimidin-3-yl)-5-fluoro-N-(piperidin-3-yl)pyrimidin-2-amine]	−1210
COc1cn2ncc(-c3nc(N[C@@H]4CCCNC4)ccc3F)c2nc1C1CC1 [Compound 2, (R)-6-(5-cyclopropyl-6-methoxypyrazolo[1,5-a]pyrimidin-3-yl)-5-fluoro-N-(piperidin-3-yl)pyridin-2-amine]	−990.8

Same assay, conditions: compound 0-10 μM, venetoclax 0-2 μM, 10 × 10, 48 h, negative = synergy

Structure (SMILES)	Excess HSA
COc1cn2ncc(-c3nc(N[C@H]4CNCC[C@@H]4F)c(F)cc3F)c2nc1C1CC1 [Compound 22, 6-(5-cyclopropyl-6-methoxypyrazolo[1,5-a]pyrimidin-3-yl)-3,5-difluoro-N-((3S,4S)-4-fluoropiperidin-3-yl)pyridin-2-amine]	−850.4
COc1cn2ncc(-c3nc(N[C@H]4CNCC[C@@H]4F)ncc3F)c2nc1C1CC1 [Compound 15a, 4-(5-cyclopropyl-6-methoxypyrazolo[1,5-a]pyrimidin-3-yl)-5-fluoro-N-((3S,4S)-4-fluoropiperidin-3-yl)pyrimidin-2-amine]	−861.1
COc1cn2ncc(-c3nc(N[C@H]4CNCC[C@@H]4F)ncc3F)c2nc1C(C)(C)O [Compound 6a, 2-(3-(5-fluoro-2-(((3S,4S)-4-fluoropiperidin-3-yl)amino)pyrimidin-4-yl)-6-methoxypyrazolo[1,5-a]pyrimidin-5-yl)propan-2-ol]	−786.4
COc1cn2ncc(-c3ccnc(N[C@H]4CNCC[C@@H]4F)n3)c2nc1C(C)(C)O [Compound 3a, 2-(3-(2-(((3S,4S)-4-fluoropiperidin-3-yl)amino)pyrimidin-4-yl)-6-methoxypyrazolo[1,5-a]pyrimidin-5-yl)propan-2-ol]	−1645

Same assay, conditions: compound 0-10 μM, venetoclax 0-20 μM, 10 × 10, 48 h, negative = synergy

Structure (SMILES)	Excess HSA
COc1cn2ncc(-c3cncc(N[C@H]4CNCC[C@@H]4F)n3)c2nc1C1CC1 [Compound 12a, 6-(5-cyclopropyl-6-methoxypyrazolo[1,5-a]pyrimidin-3-yl)-N-((3S,4S)-4-fluoropiperidin-3-yl)pyrazin-2-amine]	−1869
COc1cn2ncc(-c3nc(N[C@H]4CNC[C@@H]4F)c(F)cc3F)c2nc1C1CC1 [Compound 24, 6-(5-cyclopropyl-6-methoxypyrazolo[1,5-a]pyrimidin-3-yl)-3,5-difluoro-N-((3S,4S)-4-fluoropyrrolidin-3-yl)pyridin-2-amine]	−1766
COc1cn2ncc(-c3ccnc(N[C@H]4CNCC[C@@H]4F)n3)c2nc1C1CC1 [Compound 7a, 4-(5-cyclopropyl-6-methoxypyrazolo[1,5-a]pyrimidin-3-yl)-N-((3S,4S)-4-fluoropiperidin-3-yl)pyrimidin-2-amine]	−1947
